What is called inhibition is the relative decrease from the control value, in per cent.

In the Kinase Knowledgebase extract (Sharma et al. 2016) one finds inhibition data, which are given here for 44 compounds.

SMILES strings stand for the structures.

The experiment deals with CDK2 (human) (UniProt P24941). Description: Enzyme Assay. As to conditions: concentration not given here.
Regarding `C#CCCC(=O)N1CCC(Nc2nc(N)c(C(=O)c3c(F)cccc3F)s2)CC1`, the inhibition stood at 52%. In the case of `CC(C)(C)C1CCC(C(=O)N2CCC(Nc3nc(N)c(C(=O)c4c(F)cccc4F)s3)CC2)CC1` (centres undefined), the inhibition was determined as 34%. Next, `Nc1nc(NC2CCN(S(=O)(=O)c3ccc(CNC(=O)c4ccc(O)cc4)s3)CC2)sc1C(=O)c1c(F)cccc1F`: 55%; `C[C@H](CC(=O)N1CCC(Nc2nc(N)c(C(=O)c3c(F)cccc3F)s2)CC1)c1ccccc1`: 49%.

With `CCC(=O)C(=O)N1CCC(Nc2nc(N)c(C(=O)c3c(F)cccc3F)s2)CC1`, the inhibition was 15%. As to `COC(=O)c1cccc(C(=O)N2CCC(Nc3nc(N)c(C(=O)c4c(F)cccc4F)s3)CC2)c1`, the inhibition came to 65%. Next, `Nc1nc(NC2CCN(C(=O)c3ccc(-n4cccc4)cc3)CC2)sc1C(=O)c1c(F)cccc1F`: 69%; `CC1CCCC(C(=O)N2CCC(Nc3nc(N)c(C(=O)c4c(F)cccc4F)s3)CC2)C1` (centres undefined): 74%.

Take `COCCOC(=O)N1CCC(Nc2nc(N)c(C(=O)c3c(F)cccc3F)s2)CC1`: the inhibition is -11%. In the case of `Nc1nc(NC2CCN(C(=O)CCC(=O)c3ccc(F)cc3)CC2)sc1C(=O)c1c(F)cccc1F`, the inhibition was 7%. `Nc1nc(NC2CCN(C(=O)CC3Cc4ccccc4C3)CC2)sc1C(=O)c1c(F)cccc1F`: the inhibition was 37%. Next, `Nc1nc(NC2CCN(C(=O)CCC(=O)c3ccccc3)CC2)sc1C(=O)c1c(F)cccc1F`: 5%; `Cc1ccc(C(=O)N2CCC(Nc3nc(N)c(C(=O)c4c(F)cccc4F)s3)CC2)cc1`: 60%.

As to `CCN(CC)C(=O)N1CCC(Nc2nc(N)c(C(=O)c3c(F)cccc3F)s2)CC1`, the inhibition was -43%. For `NC(=S)Nc1cccc(C(=O)N2CCC(Nc3nc(N)c(C(=O)c4c(F)cccc4F)s3)CC2)c1`, the inhibition came to 75%. Next, `CCCC(CC)CC(=O)N1CCC(Nc2nc(N)c(C(=O)c3c(F)cccc3F)s2)CC1` (centres undefined): 31%; `Nc1nc(NC2CCN(C(=O)c3ccc(Cl)cc3F)CC2)sc1C(=O)c1c(F)cccc1F`: 68%; `Nc1nc(NC2CCN(C(=O)Cc3ccccc3O)CC2)sc1C(=O)c1c(F)cccc1F`: 48%. On to `Nc1nc(NC2CCN(C(=O)CCC(F)(F)F)CC2)sc1C(=O)c1c(F)cccc1F`, for which the inhibition is 45%.

Regarding `Nc1nc(NC2CCN(C(=O)c3ccc[n+]([O-])c3)CC2)sc1C(=O)c1c(F)cccc1F`, the inhibition worked out at 46%. Next, `Nc1nc(NC2CCN(C(=O)CN3C(=O)CSC3=S)CC2)sc1C(=O)c1c(F)cccc1F`: 64%. Then `COc1cc(SC)ccc1C(=O)N1CCC(Nc2nc(N)c(C(=O)c3c(F)cccc3F)s2)CC1`, with 22%; and `Cc1cc(C(=O)N2CCC(Nc3nc(N)c(C(=O)c4c(F)cccc4F)s3)CC2)nn1C`, with 40%; and `Cc1nc(C)c(C(=O)N2CCC(Nc3nc(N)c(C(=O)c4c(F)cccc4F)s3)CC2)s1`, with 67%. `Cc1ccc(C)c(/C=C/C(=O)N2CCC(Nc3nc(N)c(C(=O)c4c(F)cccc4F)s3)CC2)c1`: the inhibition came out at 34%. Then `COc1ccc(C(O)C(=O)N2CCC(Nc3nc(N)c(C(=O)c4c(F)cccc4F)s3)CC2)cc1O` (centres undefined), with 58%. Then `CC(=O)N(C)CC(=O)N1CCC(Nc2nc(N)c(C(=O)c3c(F)cccc3F)s2)CC1`, with 40%. Next, `Nc1nc(NC2CCN(C(=O)CCCS)CC2)sc1C(=O)c1c(F)cccc1F`: 23%; `Nc1nc(NC2CCN(C(=O)c3ccc(C=O)o3)CC2)sc1C(=O)c1c(F)cccc1F`: 39%. For the compound `Nc1nc(NC2CCN(C(=O)Cn3cnnn3)CC2)sc1C(=O)c1c(F)cccc1F`, the inhibition was 87%.

As to `CN(C)[C@@H](Cc1ccccc1)C(=O)N1CCC(Nc2nc(N)c(C(=O)c3c(F)cccc3F)s2)CC1`, the inhibition worked out at 10%. Next, `CC(=O)Nc1cc(C(=O)N2CCC(Nc3nc(N)c(C(=O)c4c(F)cccc4F)s3)CC2)ccc1C`: 64%. Turning to `CCOc1cccc(C(=O)N2CCC(Nc3nc(N)c(C(=O)c4c(F)cccc4F)s3)CC2)c1`, the inhibition is 75%. Take `Cc1cccc(OCC(=O)N2CCC(Nc3nc(N)c(C(=O)c4c(F)cccc4F)s3)CC2)c1`: the inhibition turned out to be 70%.

`CC(Oc1ccc(O)cc1)C(=O)N1CCC(Nc2nc(N)c(C(=O)c3c(F)cccc3F)s2)CC1` (centres undefined): the inhibition worked out at 18%. Then `CCCCCC#CC(=O)N1CCC(Nc2nc(N)c(C(=O)c3c(F)cccc3F)s2)CC1`, with 62%. With `COC(=O)C(=O)N1CCC(Nc2nc(N)c(C(=O)c3c(F)cccc3F)s2)CC1`, the inhibition was -12%. Next, `Cc1ccccc1CCC(=O)N1CCC(Nc2nc(N)c(C(=O)c3c(F)cccc3F)s2)CC1`: 48%; `Cc1ccc(CCCC(=O)N2CCC(Nc3nc(N)c(C(=O)c4c(F)cccc4F)s3)CC2)c(C)c1`: 35%. As to `Cc1cc(C(=O)N2CCC(Nc3nc(N)c(C(=O)c4c(F)cccc4F)s3)CC2)n(C(C)(C)C)n1`, the inhibition amounted to 59%. Then `Nc1nc(NC2CCN(C(=O)CSc3ccccc3F)CC2)sc1C(=O)c1c(F)cccc1F`, with 75%.

Turning to `CCCCCCCC(CC)C(=O)N1CCC(Nc2nc(N)c(C(=O)c3c(F)cccc3F)s2)CC1` (centres undefined), the inhibition came to 25%. Then `CO[C@@](C(=O)N1CCC(Nc2nc(N)c(C(=O)c3c(F)cccc3F)s2)CC1)(c1ccccc1)C(F)(F)F`, with -6%; and `Nc1nc(NC2CCN(C(=O)CCN3CCCCC3)CC2)sc1C(=O)c1c(F)cccc1F`, with 15%.
